# Laboratory results published in patent publication EP2520566A1, “New Pharmaceutical Compounds” (Orion Corporation, priority 2011, dated 2012).
# Target: TRPA1 (Homo sapiens, UniProt O75762)
# Assay: Determination of TRPA1 activity in vitro (TRPA1 antagonism in vitro), procedure of Wei et al., Anesthesiology 111 (2009) 147-154
# Type: cell-based
# Description: EXPERIMENT 1: Determination of TRPA1 activity in vitro
# The illustrative examples of the present invention were screened for TRPA1 activity according to a procedure described in Wei et al., Anesthesiology 111 (2009) 147-154. Table 1. TRPA1 antagonism in vitro.
# Sequence of TRPA1 (O75762 whole entry): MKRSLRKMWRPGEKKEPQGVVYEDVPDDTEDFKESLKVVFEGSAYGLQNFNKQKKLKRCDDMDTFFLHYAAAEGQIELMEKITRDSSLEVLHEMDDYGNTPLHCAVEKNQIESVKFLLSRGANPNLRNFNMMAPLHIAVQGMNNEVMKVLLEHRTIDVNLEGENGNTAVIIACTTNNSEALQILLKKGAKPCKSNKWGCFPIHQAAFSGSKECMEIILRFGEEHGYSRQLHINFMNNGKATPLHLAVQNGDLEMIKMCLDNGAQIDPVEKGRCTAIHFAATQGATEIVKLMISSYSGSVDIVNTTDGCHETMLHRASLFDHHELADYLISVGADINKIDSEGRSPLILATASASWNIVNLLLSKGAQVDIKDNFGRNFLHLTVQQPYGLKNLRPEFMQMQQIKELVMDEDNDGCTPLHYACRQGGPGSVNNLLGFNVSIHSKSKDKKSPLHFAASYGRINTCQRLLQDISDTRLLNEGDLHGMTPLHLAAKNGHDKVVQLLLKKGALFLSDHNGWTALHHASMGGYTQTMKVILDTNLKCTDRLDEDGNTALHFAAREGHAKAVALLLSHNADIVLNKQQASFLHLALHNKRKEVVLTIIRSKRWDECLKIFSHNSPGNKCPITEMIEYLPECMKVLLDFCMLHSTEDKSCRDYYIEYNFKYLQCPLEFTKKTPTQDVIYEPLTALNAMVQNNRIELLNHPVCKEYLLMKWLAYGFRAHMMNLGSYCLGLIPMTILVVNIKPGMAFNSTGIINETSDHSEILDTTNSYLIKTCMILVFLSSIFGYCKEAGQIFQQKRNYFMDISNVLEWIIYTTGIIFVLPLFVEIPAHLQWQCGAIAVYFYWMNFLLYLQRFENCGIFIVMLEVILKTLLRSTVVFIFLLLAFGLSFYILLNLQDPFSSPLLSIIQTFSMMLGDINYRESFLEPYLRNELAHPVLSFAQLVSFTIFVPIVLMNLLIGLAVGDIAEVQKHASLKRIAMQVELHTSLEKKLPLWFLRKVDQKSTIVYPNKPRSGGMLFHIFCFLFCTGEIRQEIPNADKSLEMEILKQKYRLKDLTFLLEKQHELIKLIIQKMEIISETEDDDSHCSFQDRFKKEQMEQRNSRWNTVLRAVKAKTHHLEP
row,IC50 [µM],SMILES
1,16.8,"CCc1ccc(CNC(=O)[C@@H]2CCCN2S(=O)(=O)c2ccc(F)cc2)cc1 [Example 38, (S)-N-(4-ethylbenzyl)-1-(4-fluorophenylsulfonyl)pyrrolidine-2-carboxamide]"
2,14.1,"CCCNc1cccc(CNC(=O)[C@@H]2CCCN2S(=O)(=O)c2ccc(F)cc2)c1 [Example 39, (S)-1-(4-Fluorophenylsulfonyl)-N-(3-(propylamino)benzyl)pyrrolidine-2-carboxamide]"
